ChEMBL document CHEMBL4190173 (Medchemcomm, 2016)
Active and inactive are the calls of the source. The rule behind the calls is not given here.

Columns and labels:
[1] = target: T1, NAD-dependent protein deacetylase sirtuin-1 (Homo sapiens, UniProt Q96EB6); experiment: Inhibition of human recombinant SIRT1 using AMC-p53 (379 to 382 residues) as substrate incubated for 45 mins followed by NAD+ addition measured after 30 mins by fluorescence assay
T1 sequence (Q96EB6 whole entry): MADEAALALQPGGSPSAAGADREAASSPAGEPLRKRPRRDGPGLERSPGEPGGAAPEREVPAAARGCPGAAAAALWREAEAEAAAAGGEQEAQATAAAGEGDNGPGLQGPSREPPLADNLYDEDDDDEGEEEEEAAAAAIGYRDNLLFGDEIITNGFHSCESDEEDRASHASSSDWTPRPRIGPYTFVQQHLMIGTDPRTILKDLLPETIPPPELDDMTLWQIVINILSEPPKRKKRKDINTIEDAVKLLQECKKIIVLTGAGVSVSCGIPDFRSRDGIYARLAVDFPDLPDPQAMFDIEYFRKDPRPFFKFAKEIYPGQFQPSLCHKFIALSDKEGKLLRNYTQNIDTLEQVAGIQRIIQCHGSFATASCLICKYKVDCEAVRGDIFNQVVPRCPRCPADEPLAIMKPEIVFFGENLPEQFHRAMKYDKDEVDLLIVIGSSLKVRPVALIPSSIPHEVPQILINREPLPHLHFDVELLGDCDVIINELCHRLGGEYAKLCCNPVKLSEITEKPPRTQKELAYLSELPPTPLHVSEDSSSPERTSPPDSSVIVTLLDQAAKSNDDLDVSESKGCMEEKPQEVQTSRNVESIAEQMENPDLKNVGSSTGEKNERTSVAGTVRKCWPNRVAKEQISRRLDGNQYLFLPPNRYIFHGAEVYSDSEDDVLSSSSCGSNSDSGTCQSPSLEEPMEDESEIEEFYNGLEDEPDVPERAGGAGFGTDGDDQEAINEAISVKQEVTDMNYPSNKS

[2] = target: T2, NAD-dependent protein deacetylase sirtuin-2 (Homo sapiens, UniProt Q8IXJ6); experiment: Inhibition of human recombinant SIRT2 using AMC-p53 (317 to 320 residues) as substrate incubated for 45 mins followed by NAD+ addition measured after 30 mins by fluorescence assay
T2 sequence (Q8IXJ6 whole entry): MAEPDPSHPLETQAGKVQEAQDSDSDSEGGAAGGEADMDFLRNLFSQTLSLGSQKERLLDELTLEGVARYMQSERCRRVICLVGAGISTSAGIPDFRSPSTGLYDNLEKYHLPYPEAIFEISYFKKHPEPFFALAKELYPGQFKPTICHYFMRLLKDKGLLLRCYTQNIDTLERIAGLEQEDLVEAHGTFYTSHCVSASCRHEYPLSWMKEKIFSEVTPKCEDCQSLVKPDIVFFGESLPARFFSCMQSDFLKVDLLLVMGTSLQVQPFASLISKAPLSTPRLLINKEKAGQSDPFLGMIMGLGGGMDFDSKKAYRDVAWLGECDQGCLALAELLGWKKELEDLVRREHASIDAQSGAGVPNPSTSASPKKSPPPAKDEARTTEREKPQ

[3] = target: T3, NAD-dependent protein deacetylase sirtuin-3, mitochondrial (Homo sapiens, UniProt Q9NTG7); experiment: Inhibition of human recombinant SIRT3 using AMC-p53 (317 to 320 residues) as substrate incubated for 45 mins followed by NAD+ addition measured after 30 mins by fluorescence assay
T3 sequence (Q9NTG7 whole entry): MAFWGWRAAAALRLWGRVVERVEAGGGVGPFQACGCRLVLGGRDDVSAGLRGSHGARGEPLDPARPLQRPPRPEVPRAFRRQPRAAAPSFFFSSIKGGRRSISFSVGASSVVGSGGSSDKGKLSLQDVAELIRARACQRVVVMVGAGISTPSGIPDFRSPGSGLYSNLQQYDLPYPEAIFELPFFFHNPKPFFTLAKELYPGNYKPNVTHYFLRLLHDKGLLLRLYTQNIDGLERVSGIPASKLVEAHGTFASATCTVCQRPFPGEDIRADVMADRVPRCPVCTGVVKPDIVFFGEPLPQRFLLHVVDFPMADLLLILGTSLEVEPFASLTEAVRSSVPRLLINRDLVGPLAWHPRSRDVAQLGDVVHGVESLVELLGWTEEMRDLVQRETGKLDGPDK

[4] = target: T4, NAD-dependent protein deacetylase sirtuin-2 (Homo sapiens) (UniProt Q8IXJ6); experiment: Inhibition of human recombinant SIRT2 at 50 uM using AMC-p53 ([…] residues) as substrate incubated for 45 mins followed by NAD+ addition measured after 30 mins by fluorescence assay relative to control
T4 sequence (whole entry): T2 sequence (Q8IXJ6 whole entry)

[5] = target: T5, NAD-dependent protein deacetylase sirtuin-3, mitochondrial (Homo sapiens) (UniProt Q9NTG7); experiment: Inhibition of human recombinant SIRT3 at 50 uM using AMC-p53 ([…] residues) as substrate incubated for 45 mins followed by NAD+ addition measured after 30 mins by fluorescence assay relative to control
T5 sequence (whole entry): T3 sequence (Q9NTG7 whole entry)

[6] = target: T6, NAD-dependent protein deacetylase sirtuin-1 (Homo sapiens) (UniProt Q96EB6); experiment: Inhibition of human recombinant SIRT1 at 50 uM using AMC-p53 (379 to 382 residues) as substrate incubated for 45 mins followed by NAD+ addition measured after 30 mins by fluorescence assay relative to control
T6 sequence (whole entry): T1 sequence (Q96EB6 whole entry)

[7] = target: T4, NAD-dependent protein deacetylase sirtuin-2 (Homo sapiens); experiment: Competitive inhibition of human recombinant SIRT2 using varying levels of AMC-p53 (317 to 320 residues) as substrate
[8] = target: T4, NAD-dependent protein deacetylase sirtuin-2 (Homo sapiens); experiment: Competitive inhibition of human recombinant SIRT2 using varying levels of NAD+

SMILES	IC50 [1] [µM]	IC50 [2] [µM]	IC50 [3] [µM]	inhibition [4] [%]	inhibition [5] [%]	inhibition [6] [%]	inhibition [7]	inhibition [8]
CCOC(=O)c1ccc(N2CCN(CCn3c(-c4ccc(-c5ccc(O)cc5O)cc4)nc4cc(C(=O)OCC)ccc43)CC2)c(N)c1	20	7.87						
CCCCCCCCn1c(-c2ccc(-c3ccc(N4CCCCC4)cc3)cc2)nc2cc(C(=O)OCC)ccc21	> 50	36.8	> 50					
CCCCCCCCn1c(-c2ccc(-c3ccc4c(c3)OCO4)cc2)nc2cc(C(=O)OCC)ccc21	> 50	41.4	> 50					
CCOC(=O)c1ccc(N2CCN(CCn3c(-c4ccc(-c5ccc(O)c(OC)c5)cc4)nc4cc(C(=O)OCC)ccc43)CC2)c(N)c1	35.1	8.61						
CCOC(=O)c1ccc(N2CCN(CCn3c(-c4ccc(-c5ccc(N6CCCCC6)cc5)cc4)nc4cc(C(=O)OCC)ccc43)CC2)c(N)c1	37	13.5						
CCCCCCCCn1c(-c2ccc(-c3cccc(-c4ccc(F)cn4)c3)cc2)nc2cc(C(=O)OCC)ccc21				14	24.4	22		
CCOC(=O)c1ccc(N2CCN(CCn3c(-c4ccc(-c5cncc(-c6ccc(F)cc6)c5)cc4)nc4cc(C(=O)OCC)ccc43)CC2)c(N)c1				20.9	18.4	20.6		
CCCCCCCCn1c(-c2ccc(-c3ccccc3)cc2)nc2cc(C(=O)OCC)ccc21				30	20.4	23.9		
CCOC(=O)c1ccc(N2CCN(CCn3c(-c4ccc(-c5ccc(Cl)cc5)cc4)nc4cc(C(=O)OCC)ccc43)CC2)c(N)c1				43.3	38	28.2		
CCOC(=O)c1ccc(N2CCN(CCn3c(-c4ccc(-c5ccc6c(c5)OCO6)cc4)nc4cc(C(=O)OCC)ccc43)CC2)c(N)c1	29.8	16.1	27					
CN(C)CCCCC(=O)Nc1ccc(NC(=S)NC(=O)c2ccc(C(C)(C)C)cc2)cc1			82.6					
CCCCCCCCn1c(-c2ccc(-c3ccc(O)cc3O)cc2)nc2cc(C(=O)OCC)ccc21				45.9	31.5	29		
CCCCCCCCn1c(-c2ccc(-c3ccc(OC(F)(F)F)cc3)cc2)nc2cc(C(=O)OCC)ccc21				35.6	16.9	25		
CCOC(=O)c1ccc(N2CCN(CCn3c(-c4ccc(-c5ccc(C)cc5)cc4)nc4cc(C(=O)OCC)ccc43)CC2)c(N)c1				43	30.7	28.4		
CCCCCCCCn1c(-c2ccc(-c3ccc(O)c(OC)c3)cc2)nc2cc(C(=O)OCC)ccc21	> 50	46.9	> 50					
CCOC(=O)c1ccc(N2CCN(CCn3c(-c4ccc(-c5ccccc5)cc4)nc4cc(C(=O)OCC)ccc43)CC2)c(N)c1				26.8	25.1	31.1		
CCOC(=O)c1ccc(N2CCN(CCn3c(-c4ccc(-c5ccc(OC(F)(F)F)cc5)cc4)nc4cc(C(=O)OCC)ccc43)CC2)c(N)c1				37.2	20.6	24.6		
CCCCCCCCn1c(-c2ccc(-c3ccc(Cl)cc3)cc2)nc2cc(C(=O)OCC)ccc21				38.3	24.9	24.3		
CCCCCCCCn1c(-c2ccc(-c3ccc(C)cc3)cc2)nc2cc(C(=O)OCC)ccc21				30.3	19.4	15.3		
CCCCCCCCn1c(-c2ccc(-c3ccc(N(C)C)cc3)cc2)nc2cc(C(=O)OCC)ccc21	> 50	38.1	> 50					
CCOC(=O)c1ccc(N2CCN(CCn3c(-c4ccc(-c5ccc(N(C)C)cc5)cc4)nc4cc(C(=O)OCC)ccc43)CC2)c(N)c1	10.2	2.92					Active	Active
